Results reported in patent publication US10539578B2, “Method for diagnosing, treating, or preventing mood disorders” (JAPAN TOBACCO INC., priority 2015, dated 2020).

Experiments:
C57BL/6NCrS1c mice = assay: Tail suspension test of mice after nasal administration of SITH-1-expressing adenovirus; type: in vivo; conditions: 80 mg/L Fluoxetine solution as drinking water from 2 weeks before SITH-1/Adv; test 7 days after nasal administration
Protocol: 8-week-old C57BL/6NCrS1c mice were raised at a room temperature of 24±1° C. and with lights on for 12 hours and off for 12 hours. After each of the mice was anesthetized with use of isoflurane, SITH-1/Adv or empty/Adv in an amount equivalent to 2.5×10^7 ifu was dropped into the nasal cavity, and was then sucked by the mice along with breathing. Then, the mice were returned to raising cages.
7 days after the nasal administration of SITH-1/Adv or empty/Adv, a tail suspension test was carried out for 10 minutes. A period of immobility time was measured with use of TailSuspScanTopScan (CleverSys, Inc.). The tail suspension test was carried out by suspending each mouse by taping the tail 1 cm from the end. […] In the experiment, 30 mice were used in each group.
Statistical significance (* indicates P<0.05, ** indicates P<0.01, and *** indicates P<0.001) was calculated by use of the Mann-Whitney U-test.
Then, it was studied whether or not an SSRI (selective serotonin reuptake inhibitor), which is an antidepressant, would suppress an increase in immobility time, the increase being caused by the nasal administration of the SITH-1/Adv. 80 mg/L of Fluoxetine solution as drinking water was given to 6-week-old mice, and then the mice were raised for 2 weeks. Then, SITH-1/Adv was nasally administered. 7 days after the nasal administration, a tail suspension test was carried out for 10 minutes. […]

[1] = test system: HHV-6 variant B HST strain; assay: SITH-1 expression in HHV-6-infected U373 cells in the presence of ganciclovir (Real-time PCR); type: cell-based; conditions: U373 cultured overnight with drug, one day after infection, relative to ganciclovir(−)
Protocol: In the presence of ganciclovir, human glial cell lines (U373) were infected with HHV-6, and SITH-1 expression levels in the infected cells was detected by use of Real-time PCR.
The U373 cells were cultured overnight in the presence of ganciclovir at concentrations indicated in the graph. Thereafter, the U373 cells were infected with HHV-6 variant B HST strain, and after one day had passed after this infection, the SITH-1 expression levels in the cells were detected by use of Real-time PCR.
With regards to an effective concentration of ganciclovir against HHV-6 variant B, IC50 was presumed to be approximately 10 μM. As such, three concentration levels obtained by 3-fold dilution were used, with 10 μM being a median amount.
FIG. 25 illustrates suppression of SITH-1 expression by ganciclovir. The vertical axis of FIG. 25 represents SITH-1 mRNA expression level as a ratio, where 1 is the ratio for ganciclovir(−). […] When ganciclovir was used in an amount of 3 μM, 10 μM, and 30 μM, SITH-1 mRNA expression levels were reduced by approximately 20%, 40%, and 80% or more, respectively.

HHV-6 variant B = conditions: presumed value used to choose test concentrations; read-out: IC50 (effective concentration against HHV-6 variant B); cited from earlier work
HHV-6 HST strain = assay: Suppression of SITH-1 expression by heparin and anti-heparan sulfate peptide in HHV-6-infected U373 cells; type: cell-based; conditions: 10 unit/mL reacted with U373 cells at 4° C. for 1 hour before infection; MOI 3; 48 hours
Protocol: U373 astrocytoma cells were removed with use of trypsin-EDTA, and then a medium (10% FBS-containing DMEM) was added, so that the resultant cells were at 1×10^5 cell/mL. Then, the U373 cells were reacted with 10 unit/mL of Novo-Heparin (Mochida Pharmaceutical Co., Ltd.) or 0.1 mM of anti-3-OS Heparan sulfate (HS) peptide trifluoroacetate salt (Sigma-Aldrich) at 4° C. for 1 hour. The U373 cells were also reacted only with a medium as a control at 4° C. for 1 hour. The resultant cells were washed 3 times with a medium. Then, the U373 cells thus washed were infected with a HHV-6 HST strain virus fluid (2.9×10^6 ffu/ml) at a MOI of 3 by centrifugation. Then, the infected cells were cultured at 37° C. for 48 hours in a CO2 incubator.
From the resultant infected cells, RNA was purified by use of an RNeasy Mini Kit (Qiagen) in accordance with the standard protocol. Then, cDNA was synthesized by use of a PrimeScript RT Reagent Kit (Takara Bio). Finally, expression levels of SITH-1 and GAPDH mRNA were measured by a method similar to that used in the above (3.1).

HEK293 cells = assay: Effect of intracellular protein expression on intracellular calcium concentration (Fluo 4-AM fluorescence); type: cell-based; conditions: protein temporarily overexpressed in HEK293 cells, 24 hours after transfection; vs control vector (S-C protein: vs SITH-1-expressing cell)
Text: In order to express SITH-1, the S-C protein, and the C-S protein intracellularly, pFLAG-CMV-5b (SIGMA-ALDRICH), which is an expression vector for mammals, was used to construct SITH-1/pFLAG-CMV-5b, SITH-CAML/pFLAG-CMV-5b, and CAML-SITH/pFLAG-CMV-5b. In each of the fusion proteins, the spacer (SEQ ID NO: 6) shown in FIG. 1 was inserted between SITH-1 and CAML. pFLAG-CMV-5b was used as a control. Each vector was transfected into HEK293 cells by use of a CalPhos (trademark) Mammalian Transfection Kit (Takara Bio), such that each protein was temporarily overexpressed intracellularly.
A Calcium Kit II-Fluo 4 (Dojindo) was used to cause cells to take up Fluo 4-AM, 24 hours after transfection. Thereafter, an ArrayScan XTI System (ThermoFisher Scientific) was used to measure fluorescence intensities (λex=485 nm, λem=518) in cells expressing the various proteins (700 to 1300 cells per protein type).
FIG. 26 indicates the effects of SITH-1 expression, S-C protein expression, and C-S protein expression on intracellular calcium concentration. Median, maximum, and minimum values are indicated as a box-and-whisker plot. Statistical significance (′ indicates P<0.01) was determined via a multiple comparison test using Scheffe's method.

Molecule: CNCCC(Oc1ccc(C(F)(F)F)cc1)c1ccccc1 (stereo not shown) [Fluoxetine]
- immobility time increases in SITH-1/Adv nasal administration mice (tail suspension test) (C57BL/6NCrS1c mice): suppressed

Molecule: Nc1nc(O)c2ncn(COC(CO)CO)c2n1 [ganciclovir]
- SITH-1 mRNA expression level reduced by ([1]; ganciclovir 3 μM): approximately 20%
- SITH-1 mRNA expression level reduced by ([1]; ganciclovir 10 μM): ~40%
- SITH-1 mRNA expression level reduced by ([1]; ganciclovir 30 μM): ≥ 80%
- IC50 (HHV-6 variant B): ~10 µM

Molecule: heparin
- SITH-1 expression in U373 cells (HHV-6 HST strain): suppressed

B1: SITH-1: HHV-6 latent infection protein, 159 amino acids, SEQ ID NO: 1 (protein)
chain: MGYEEKVSATGKTRLKILACLIVLILAAAITMLTLEIISNQKRTTTDLEAVTVALKHVSTSLASCTESTTSVHTDSVTSQPTKNKESRKKIEGKSPSWVQALTTASGIILLFCIMMIFITCSWTTEKDTEKSEVQSYASSVETLDSLNEAIIPKTEMNV
modifications: Human herpesvirus 6
- intracellular calcium concentration (HEK293 cells): increased
